# From patent publication US9693828B2, “Composition comprising acetic anhydride and a gadolinium complex, and method for the use in hyperpolarisation in MRI analysis” (BRACCO IMAGING S.P.A., priority 2011, dated 2017)
# How the values were obtained:
# [1] = DNP hyperpolarisation of acetic anhydride with Finlandic acid trityl radical, with or without gadolinium complex (solid state polarisation build up); format: physicochemical
# Description: A stock solution of radical was prepared by dissolving Finlandic acid (2.7 mg, 2.6 μmol) in unlabeled acetic anhydride (22.2 mg) yielding a solution with a concentration of 105 μmol/g.
# [2] = Dissolution and hydrolysis of hyperpolarised acetic anhydride, NMR time series of 1D spectra to follow signal decay; format: physicochemical
# Description: A stock solution of radical was prepared by dissolving Finlandic acid (2.7 mg, 2.6 μmol) in unlabeled acetic anhydride (22.2 mg) yielding a solution with a concentration of 105 μmol/g. A part (2.1 mg) of this stock solution was mixed with 1,1′-^13C2 acetic anhydride (15 μl, 17.2 mg, 0.165 mmol) to make a 12.8 mM solution. […] The sample was dissolved in 5 ml water with added NaOH (12 M, 39 μl) and allowed to hydrolyze for 15 s and then neutralized by mixing with phosphate buffer (300 μl, 1M, pH 7.3) with addition of HCl (14 μl, 12M). The sample was transferred to an NMR spectrometer and the acquisition was started 30 s after the dissolution recording a time series of 1D spectra to follow signal decay.
# [3] = 13C DNP, acetic anhydride/1,1'-13C2 acetic anhydride, Finlandic acid radical 12.5 mM, gadolinium complex added as labelled (none for acetic anhydride, Example 1), FIG. 1
"T1 of the hydrolysis product ([2]; after dissolution in water/NaOH, hydrolysis 15 s, neutralization to pH 6.8, acquisition started 30 s after dissolution) [s]",Compound,"exponential time constant of hyperpolarisation [1, 3] [s]","exponential time constant of hyperpolarisation ([1]; Example 5: 1,1'-13C2 acetic anhydride, Finlandic acid 12.8 mM, no gadolinium complex) [s]","hydrolysis of acetic anhydride at the start of the acquisition ([2]; 5 ml water with NaOH, 15 s hydrolysis, neutralized, acquisition 30 s after dissolution)"
,"CC(O)CN1CCN(CC(=O)[O-])CCN(CC(=O)[O-])CCN(CC(=O)[O-])CC1.[Gd+3] (stereo not shown) [Gadolinium complex III, [10-(2-hydroxypropyl)-1,4,7,10-tetraazacyclododecane-1,4,7-triacetato(3-)]gadolinium, reference compound]",750,,
,CC(=O)OC(C)=O [acetic anhydride],670,525,complete
,"[[α1,α4,α7-tris[(phenylmethoxy)methyl]-1,4,7,10-tetraazacyclododecane-1,4,7,10-tetraacetato(4-)]gadolinate(1-)]hydrogen [Gadolinium complex I]",690,,
45,"CC(=O)O [hydrolysis product, acetic acid]",,,
,"CCCCCCCCCCCCCCCCCCN(CCCCCCCCCCCCCCCCCC)C(=O)CN1CCN(CC(=O)[O-])CCN(CC(=O)[O-])CCN(CC(=O)[O-])CC1.[Gd+3] [Gadolinium complex II, [10-[2-(dioctadecylamino)-2-oxoethyl]-1,4,7,10-tetraazacyclododecane-1,4,7-triacetato(3-)]gadolinium, reference compound]",690,,
